Measurements from patent publication US6339045B1, “N-(unsubstituted or substituted)-4-substituted-6-(unsubstituted or substituted)phenoxy-2-pyridinecarboxamides or thiocarboxamides, processes for producing the same, and herbicides” (Kureha Kagaku Kogyo Kabushiki Kaisha, priority 1995, dated 2002).

How the values were obtained:
Assay in all cases: Herbicidal effect by foliage and soil treatment
Type in all cases: in vivo
Conditions in all cases: 10 g ai/10a, evaluated after 14 days
[1] = test system: black nightshade (Solanum nigrum)
Summary of the method: (§1)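 Seedlings grown in granular soil in a 19–25 °C greenhouse to the cotyledon–two-leaf stage were sprayed over foliage and soil with compound in Tween 20/water at a set application rate. Growth was scored on a rating scale against untreated plants after 14 days.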

[2] = test system: ivyleafspeedwell (Veronica hederaefolia)
Summary of the method: as §1

[3] = test system: cleavers (Galium aparine)
Summary of the method: as §1

[4] = test system: common chickweed (Stellaria media)
Summary of the method: as §1

[5] = test system: common blackjack (Bidens pilosa)
Summary of the method: as §1

[6] = test system: velvetleaf (Abutilon theophrasti)
Summary of the method: as §1

[7] = test system: redroot pigweed (Amaranthus retroflexus)
Summary of the method: as §1

[8] = test system: kediock (Sinapis arvensis)
Summary of the method: as §1

[9] = test system: field bindweed (Convolvulus arvensis)
Summary of the method: as §1

[10] = test system: wild chamomile (Matricaria chamomilla)
Summary of the method: as §1

[11] = test system: sicklepod (Cassia obtusifolia)
Summary of the method: as §1

Row | SMILES | herbicidal activity rating, SN (Solanum nigrum) [1] | herbicidal activity rating, VH (Veronica hederaefolia) [2] | herbicidal activity rating, GA (Galium aparine) [3] | herbicidal activity rating, SM (Stellaria media) [4] | herbicidal activity rating, BP (Bidens pilosa) [5] | herbicidal activity rating, AT (Abutilon theophrasti) [6] | herbicidal activity rating, AR (Amaranthus retroflexus) [7] | herbicidal activity rating, SA (Sinapis arvensis) [8] | herbicidal activity rating, CA (Convolvulus arvensis) [9] | herbicidal activity rating, MC (Matricaria chamomilla) [10] | herbicidal activity rating, CO (Cassia obtusifolia) [11]
1 | COCCNC(=O)c1cc(OC)cc(Oc2cccc(C(F)(F)F)c2)n1 [Compound I-61] | 5 (percentage of weeds killed was not less than 80%) | 5 (percentage of weeds killed was not less than 80%) | 5 (percentage of weeds killed was not less than 80%) | 5 (percentage of weeds killed was not less than 80%) | 2 (percentage of weeds killed was not less than 20% and less than 40%) | 4 (percentage of weeds killed was not less than 60% and less than 80%) | 5 (percentage of weeds killed was not less than 80%) | 5 (percentage of weeds killed was not less than 80%) | 3 (percentage of weeds killed was not less than 40% and less than 60%) | 5 (percentage of weeds killed was not less than 80%) | 5 (percentage of weeds killed was not less than 80%)
2 | COc1cc(Oc2cccc(C(F)(F)F)c2)nc(C(=O)NOCC2CC2)c1 [Compound I-107] | 5 (percentage of weeds killed was not less than 80%) | 5 (percentage of weeds killed was not less than 80%) | 5 (percentage of weeds killed was not less than 80%) | 5 (percentage of weeds killed was not less than 80%) | 3 (percentage of weeds killed was not less than 40% and less than 60%) | 4 (percentage of weeds killed was not less than 60% and less than 80%) | 5 (percentage of weeds killed was not less than 80%) | 5 (percentage of weeds killed was not less than 80%) | 4 (percentage of weeds killed was not less than 60% and less than 80%) | 3 (percentage of weeds killed was not less than 40% and less than 60%) | 5 (percentage of weeds killed was not less than 80%)
3 | COc1cc(Oc2cccc(C(F)(F)F)c2)nc(C(=O)NC2CCCC2)c1 [Compound I-50] | 5 (percentage of weeds killed was not less than 80%) | 5 (percentage of weeds killed was not less than 80%) | 5 (percentage of weeds killed was not less than 80%) | 5 (percentage of weeds killed was not less than 80%) | 5 (percentage of weeds killed was not less than 80%) | 4 (percentage of weeds killed was not less than 60% and less than 80%) | 5 (percentage of weeds killed was not less than 80%) | 5 (percentage of weeds killed was not less than 80%) | 5 (percentage of weeds killed was not less than 80%) | 5 (percentage of weeds killed was not less than 80%) | 4 (percentage of weeds killed was not less than 60% and less than 80%)
4 | CCCONC(=O)c1cc(OC)cc(Oc2cccc(C(F)(F)F)c2)n1 [Compound I-99, N-(n-propoxy)-4-methoxy-6-{3-(trifluoromethyl)phenoxy}-2-pyridine carboxamide] | 5 (percentage of weeds killed was not less than 80%) | 5 (percentage of weeds killed was not less than 80%) | 5 (percentage of weeds killed was not less than 80%) | 5 (percentage of weeds killed was not less than 80%) | 5 (percentage of weeds killed was not less than 80%) | 5 (percentage of weeds killed was not less than 80%) | 5 (percentage of weeds killed was not less than 80%) | 5 (percentage of weeds killed was not less than 80%) | 5 (percentage of weeds killed was not less than 80%) | 4 (percentage of weeds killed was not less than 60% and less than 80%) | 5 (percentage of weeds killed was not less than 80%)
5 | COc1cc(Oc2cccc(C(F)(F)F)c2)nc(C(=O)NC2CCC2)c1 [Compound I-49] | 5 (percentage of weeds killed was not less than 80%) | 5 (percentage of weeds killed was not less than 80%) | 5 (percentage of weeds killed was not less than 80%) | 5 (percentage of weeds killed was not less than 80%) | 5 (percentage of weeds killed was not less than 80%) | 5 (percentage of weeds killed was not less than 80%) | 5 (percentage of weeds killed was not less than 80%) | 5 (percentage of weeds killed was not less than 80%) | 5 (percentage of weeds killed was not less than 80%) | 5 (percentage of weeds killed was not less than 80%) | 5 (percentage of weeds killed was not less than 80%)
